In the NIST ThermoML archive (doi:10.1016/j.jct.2018.03.007):
± gives the expanded uncertainty stated by the source.

Experiment: xn = mol fraction of the nth substance listed
Settings: 100 kPa, Liquid; for speed of sound: Frequency=2 MHz, Linear variable-path acoustic interferometer; for mass density: Vibrating tube method

CCn1cc[n+](C)c1.O=S(=O)([O-])O [1-ethyl-3-methylimidazolium hydrogen sulfate] + CCCO
speed of sound (298.15 K, x1 = 0.0519): 1272.3 ± 1.7 m/s
speed of sound (298.15 K, x1 = 0.1097): 1342.3 ± 1.7 m/s
speed of sound (298.15 K, x1 = 0.2473): 1486.2 ± 1.9 m/s
speed of sound (298.15 K, x1 = 0.3301): 1561.1 ± 2 m/s
speed of sound (298.15 K, x1 = 0.425): 1640.8 ± 2.1 m/s
speed of sound (298.15 K, x1 = 0.5348): 1724.4 ± 2.2 m/s
speed of sound (298.15 K, x1 = 0.6634): 1808.4 ± 2.4 m/s
speed of sound (298.15 K, x1 = 0.816): 1892 ± 2.6 m/s
speed of sound (298.15 K, x1 = 0.9035): 1937.7 ± 2.7 m/s
speed of sound (298.15 K, x1 = 1): 1982.8 ± 2.9 m/s
mass density (298.15 K, x1 = 0.0519): 859.54 ± 2.2 kg/m3
mass density (298.15 K, x1 = 0.1097): 918.5 ± 2.3 kg/m3
mass density (298.15 K, x1 = 0.2473): 1034.63 ± 2.4 kg/m3
mass density (298.15 K, x1 = 0.3301): 1091.59 ± 2.4 kg/m3
mass density (298.15 K, x1 = 0.425): 1147.59 ± 2.5 kg/m3
mass density (298.15 K, x1 = 0.5348): 1202.62 ± 2.5 kg/m3
mass density (298.15 K, x1 = 0.6634): 1256.73 ± 2.6 kg/m3
mass density (298.15 K, x1 = 0.816): 1310.71 ± 2.8 kg/m3
mass density (298.15 K, x1 = 0.9035): 1338.05 ± 2.9 kg/m3
mass density (298.15 K, x1 = 1): 1365.75 ± 2.5 kg/m3
speed of sound (303.15 K, x1 = 0.0519): 1254.7 ± 1.7 m/s
speed of sound (303.15 K, x1 = 0.1097): 1324 ± 1.7 m/s
speed of sound (303.15 K, x1 = 0.2473): 1467.1 ± 1.9 m/s
speed of sound (303.15 K, x1 = 0.3301): 1542 ± 2 m/s
speed of sound (303.15 K, x1 = 0.425): 1621.3 ± 2.1 m/s
speed of sound (303.15 K, x1 = 0.5348): 1704.9 ± 2.2 m/s
speed of sound (303.15 K, x1 = 0.6634): 1788.3 ± 2.4 m/s
speed of sound (303.15 K, x1 = 0.816): 1871.6 ± 2.6 m/s
speed of sound (303.15 K, x1 = 0.9035): 1917.9 ± 2.7 m/s
speed of sound (303.15 K, x1 = 1): 1962.9 ± 2.8 m/s
mass density (303.15 K, x1 = 0.0519): 855.59 ± 2.2 kg/m3
mass density (303.15 K, x1 = 0.1097): 914.64 ± 2.3 kg/m3
mass density (303.15 K, x1 = 0.2473): 1030.95 ± 2.4 kg/m3
mass density (303.15 K, x1 = 0.3301): 1088.01 ± 2.4 kg/m3
mass density (303.15 K, x1 = 0.425): 1144.15 ± 2.5 kg/m3
mass density (303.15 K, x1 = 0.5348): 1199.35 ± 2.5 kg/m3
mass density (303.15 K, x1 = 0.6634): 1253.6 ± 2.6 kg/m3
mass density (303.15 K, x1 = 0.816): 1307.54 ± 2.7 kg/m3
mass density (303.15 K, x1 = 0.9035): 1334.87 ± 2.9 kg/m3
mass density (303.15 K, x1 = 1): 1362.62 ± 2.5 kg/m3
speed of sound (308.15 K, x1 = 0.0519): 1237.1 ± 1.6 m/s
speed of sound (308.15 K, x1 = 0.1097): 1305.9 ± 1.7 m/s
speed of sound (308.15 K, x1 = 0.2473): 1448.3 ± 1.9 m/s
speed of sound (308.15 K, x1 = 0.3301): 1522.1 ± 2 m/s
speed of sound (308.15 K, x1 = 0.425): 1601.4 ± 2.1 m/s
speed of sound (308.15 K, x1 = 0.5348): 1684.2 ± 2.2 m/s
speed of sound (308.15 K, x1 = 0.6634): 1767.3 ± 2.4 m/s
speed of sound (308.15 K, x1 = 0.816): 1850.6 ± 2.6 m/s
speed of sound (308.15 K, x1 = 0.9035): 1898.1 ± 2.7 m/s
speed of sound (308.15 K, x1 = 1): 1943.1 ± 2.8 m/s
mass density (308.15 K, x1 = 0.0519): 851.62 ± 2.2 kg/m3
mass density (308.15 K, x1 = 0.1097): 910.8 ± 2.3 kg/m3
mass density (308.15 K, x1 = 0.2473): 1027.23 ± 2.4 kg/m3
mass density (308.15 K, x1 = 0.3301): 1084.39 ± 2.4 kg/m3
mass density (308.15 K, x1 = 0.425): 1140.69 ± 2.5 kg/m3
mass density (308.15 K, x1 = 0.5348): 1196.07 ± 2.5 kg/m3
mass density (308.15 K, x1 = 0.6634): 1250.5 ± 2.6 kg/m3
mass density (308.15 K, x1 = 0.816): 1304.42 ± 2.7 kg/m3
mass density (308.15 K, x1 = 0.9035): 1331.73 ± 2.9 kg/m3
mass density (308.15 K, x1 = 1): 1359.53 ± 2.5 kg/m3
speed of sound (313.15 K, x1 = 0.0519): 1219.7 ± 1.6 m/s
speed of sound (313.15 K, x1 = 0.1097): 1288.1 ± 1.7 m/s
speed of sound (313.15 K, x1 = 0.2473): 1429.1 ± 1.9 m/s
speed of sound (313.15 K, x1 = 0.3301): 1502.6 ± 1.9 m/s
speed of sound (313.15 K, x1 = 0.425): 1581.7 ± 2.1 m/s
speed of sound (313.15 K, x1 = 0.5348): 1664.9 ± 2.2 m/s
speed of sound (313.15 K, x1 = 0.6634): 1747.8 ± 2.4 m/s
speed of sound (313.15 K, x1 = 0.816): 1830.1 ± 2.6 m/s
speed of sound (313.15 K, x1 = 0.9035): 1878.1 ± 2.7 m/s
speed of sound (313.15 K, x1 = 1): 1923.2 ± 2.8 m/s
mass density (313.15 K, x1 = 0.0519): 847.65 ± 2.2 kg/m3
mass density (313.15 K, x1 = 0.1097): 906.93 ± 2.3 kg/m3
mass density (313.15 K, x1 = 0.2473): 1023.51 ± 2.4 kg/m3
mass density (313.15 K, x1 = 0.3301): 1080.78 ± 2.4 kg/m3
mass density (313.15 K, x1 = 0.425): 1137.24 ± 2.4 kg/m3
mass density (313.15 K, x1 = 0.5348): 1192.77 ± 2.5 kg/m3
mass density (313.15 K, x1 = 0.6634): 1247.33 ± 2.6 kg/m3
mass density (313.15 K, x1 = 0.816): 1301.31 ± 2.7 kg/m3
mass density (313.15 K, x1 = 0.9035): 1328.62 ± 2.8 kg/m3
mass density (313.15 K, x1 = 1): 1356.41 ± 2.5 kg/m3
